SMILES strings stand for the structures.

In the test the test system is Plasmodium falciparum. Kind of test: GSK_TCMDC: Inhibition of Plasmodium falciparum 3D7 in whole erythrocytes, using parasite LDH activity as an index of growth. Type of test: functional, organism-based. Particulars: Plasmodium falciparum, 3D7.
Regarding `CCN(CC)CCN(Cc1ccc(-c2ccc(C(F)(F)F)cc2)cc1)C(=O)Cn1c(CCc2cc(F)c(F)cc2F)nc(=O)c2ccccc21`, the XC50 was found to be 718 nM.

Turning to `CC(C)N1CCC(N(Cc2ccc(-c3ccc(Cl)cc3)cc2)C(=O)Cn2c(CCc3cccc(F)c3F)nc(=O)c3ccccc32)CC1`, the XC50 was 944 nM.

In turn, `COc1cc(Cc2cnc(N)nc2N)cc(OCC(C)(C)C(=O)O)c1OC` yielded an XC50 of 1110 nM.

In turn, `COc1ccc2c(CCNc3nc(SC)ncc3C(=O)NCCc3ccc(F)cc3)c[nH]c2c1` gave an XC50 of 762 nM.

`CC(=O)c1sc(Cc2nc3ccccc3s2)nc1C`: the XC50 worked out at 1070 nM.

`CN1CCN(c2ccnc3cc4ccccc4cc23)CC1` yielded an XC50 of 947 nM.

Regarding `CC1CN(CCCn2c3ccccc3c3ccc(C(=O)CCCN(C)C)cc32)CC(C)N1` (configuration not stated), the XC50 was 809 nM.

In the case of `CN(C)c1cccc(CN2CC=C(c3c[nH]c4ccc(Cl)cc34)CC2)c1`, the XC50 came out at 663 nM.

On to `CC(=O)NC(c1cccs1)c1cc(Cl)c2cccnc2c1O` (configuration not stated), for which the XC50 amounted to 317 nM.

In turn, `Cc1cccc2nc(-c3cccc(-c4ccc(C(=O)N5CCCCC5C(C)O)cc4)c3)[nH]c12` (configuration not stated) yielded an XC50 of 371 nM.

Turning to `O=C(Nc1ccc(F)c(Cl)c1)c1cc([N+](=O)[O-])cc2cn[nH]c12`, the XC50 was determined as 315 nM.

Compound `CCOc1cc(C(=O)Nc2ccc3nc(N4CCCCC4)cc(C)c3c2)cc(OCC)c1OCC` came in with an XC50 of 825 nM.

On to `O=C(/C=C/c1cccc2c1OCO2)Nc1ccnc2ccncc12`, for which the XC50 was determined as 895 nM.

In turn, `COc1ccc2[nH]ccc(=NN=Cc3cccc(C)n3)c2c1` showed an XC50 of 764 nM.

Compound `CN1CCCN(Cc2cccc(-c3cccc(NC(=O)c4cccc(C#N)c4)c3)c2)CC1` had an XC50 of 818 nM.

`Cc1cccc2nc(O)c([N+](=O)[O-])c(O)c12` yielded an XC50 of 911 nM.

`O=C(O)c1ccc2c(c1)N(C(=O)CNCc1ccc(F)cc1)CC(=O)N2CCCc1ccccc1` showed an XC50 of 919 nM.

With `Cn1ccc(C(=O)Nc2ccc3c(c2)CN(Cc2ccc(N4CCCC4)o2)CCC3)n1`, the XC50 came to 1310 nM.

Turning to `CC1CN(c2cnn(C/C=C/c3ccc(NC(=O)c4ccc(Cl)cc4)cc3)c(=O)c2Cl)CC(C)N1` (configuration not stated), the XC50 is 853 nM.

`O=C(Nc1ccc(C(F)(F)F)cc1)Nc1cccc([N+](=O)[O-])c1` had an XC50 of 865 nM.

`COc1cccc(-c2cccc(-c3ccc(NC(=O)c4ccc([N+](=O)[O-])o4)cc3)n2)c1` showed an XC50 of 515 nM.

In the case of `COc1ccccc1Nc1nc(NC2CCN(C)CC2)cc(-c2cccc(C(F)(F)F)c2)n1`, the XC50 came out at 919 nM.

In turn, `CS(=O)(=O)c1ccc(CNCc2cccc(-c3ccc(-c4nc5cc(C(F)(F)F)ccc5[nH]4)cc3)c2)cc1` gave an XC50 of 513 nM.

The compound `COc1ccc(C(C(=O)NC2CCN(C[C@H](O)c3ccnc4ccc(OC)cc34)CC2)N2CCc3ccccc3C2)cc1` (some centres not stated) had an XC50 of 697 nM.

In turn, `CC(C)CC(=O)N1CCNC[C@@H]1C(=O)NC1CC1` yielded an XC50 of 1090 nM.

The compound `CCC(C)(C)NC(C)C(O)c1ccc(C(F)(F)F)cc1` (configuration not stated) returned an XC50 of 750 nM.

As for `CN1CCC(Oc2ccc(Nc3nccc(NCC(O)c4ccccc4)n3)cc2Cl)CC1` (configuration not stated), the XC50 is 785 nM.

With `CN1CCC(C(=O)N(Cc2ccc(-c3ccc(CNCCc4ccccc4)cn3)cc2)Cc2cccc(F)c2)CC1`, the XC50 was determined as 935 nM.

In turn, `CN1CCN(CCCN(Cc2cccc(-c3ccc(CNCCc4ccccc4)cc3)c2)C(=O)Nc2ccccc2)CC1` returned an XC50 of 834 nM.

The compound `O=C(/C=C/c1ccc(Cl)c(Cl)c1)NCCCCCN1C2CCC1CC(c1c[nH]c3ccccc13)C2` (configuration not stated) registered an XC50 of 840 nM.

`O=C1C(c2ccccc2)=C(Nc2ccc([N+](=O)[O-])cc2)c2ccccc21`: the XC50 was determined as 871 nM.

Compound `OCC1CCN(Cc2cccc(-c3ccc(-c4nc5cc(C(F)(F)F)ccc5[nH]4)cc3)c2)CC1` came in with an XC50 of 662 nM.

Regarding `Fc1cc(Cl)ccc1Nc1ccnc(Nc2ccc3cn[nH]c3c2)n1`, the XC50 is 737 nM.

In turn, `Oc1ccc(CCNc2nc(NCc3cccc(-c4cc(C(F)(F)F)ccc4Cl)c3)nc(N3CCNCC3)n2)cc1` displayed an XC50 of 1780 nM.

Consider `COc1ccc(CC2(c3ccc(F)cc3)N=C(N)N(CCCc3cccnc3)C2=O)cc1` (configuration not stated), for which the XC50 was 668 nM.

In turn, `CN1CCN(c2nsc3ccc(-c4ccc(NC(=O)Nc5ccccc5)cc4)cc23)CC1` registered an XC50 of 180 nM.

`CCOc1ccc(-c2noc(-c3c[nH]c4ccccc4c3=O)n2)cc1` had an XC50 of 205 nM.

With `O=C(C=Cc1ccc(F)c(Br)c1)N1CCC(CN2CCC(c3c[nH]c4ccccc34)CC2)CC1`, the XC50 worked out at 745 nM.

The compound `CCC(C)CN1CCN(c2cc(NC(=O)c3cccs3)ccn2)C(C)C1` (configuration not stated) returned an XC50 of 997 nM.

`COC(=O)c1ccc(CC(C)NCC(O)c2cccc(C(F)(F)F)c2)c(OC)c1` (configuration not stated): the XC50 stood at 804 nM.

Compound `O=C(Nc1cccc(-c2ccc(-c3nc4cc(F)ccc4[nH]3)cc2)c1)c1ccoc1` registered an XC50 of 962 nM.

In the case of `O=C(NCCc1ccccc1)[C@H](Cc1ccccc1)Nc1ccnc(NCC2CCCCC2)n1`, the XC50 was 1380 nM.

In the case of `N=c1cc(C=Cc2ccc(O)cc2)[nH]c2ccccc12`, the XC50 came to 993 nM.

`c1nc(CCNc2nc(Nc3ccc4c(c3)OCO4)nc(NC3CCCC3)n2)c[nH]1`: the XC50 was determined as 1150 nM.

`Oc1ccc(CCNCCCCCCNCCc2ccc(Cl)c3ccccc23)cc1O` gave an XC50 of 716 nM.

Compound `COc1ccc(Cc2c(C)nc3nc(N)nc(N)c3c2C)cc1OC` registered an XC50 of 912 nM.

As for `CCOC(=O)c1ccc(N2CCN(c3cc(Cl)ccc3C)CC2)c(NC(=O)Nc2ccc(Cl)c(Cl)c2)c1`, the XC50 stood at 584 nM.

As for `Cc1cccc2nc(-c3ccc(-c4ccc(NC(=O)Nc5ccsc5)cc4)s3)[nH]c12`, the XC50 stood at 113 nM.

As to `Oc1ccc2[nH]cc(C3CCN(CCCCCCCCCN4CCC(c5c[nH]c6ccc(O)cc56)CC4)CC3)c2c1`, the XC50 came out at 314 nM.

For the compound `Cc1sc(C)c(C(F)(F)F)c1CNCCCNc1cc(=O)c2ccccc2[nH]1`, the XC50 was 1100 nM.

`O=C(Nc1ccc(-c2ccccc2)c(OCCN2CCNCC2)c1)c1ccc(-c2ccc(Cl)cc2)cc1`: the XC50 was 779 nM.

As to `O=C(NCc1ccc(F)cc1)c1cc(Br)cc(N2CCN(c3ccncc3)CC2)c1`, the XC50 worked out at 1230 nM.

For `CCCCN(Cc1cnccc1-c1ccc(Br)cc1)c1ccc(C(O)(C(F)(F)F)C(F)(F)F)cc1`, the XC50 came out at 1060 nM.

The compound `Cc1ccccc1Cn1c(CN2CCC(C(=O)NC3CC3)CC2)cc2ccccc21` registered an XC50 of 477 nM.

In turn, `CCCNCc1ccc(-c2ccc(CN(Cc3cnc(C)cn3)C(=O)CC#N)cc2)nc1` displayed an XC50 of 1220 nM.

In turn, `N[C@@H](CCN1CCC(c2cccc(O)c2)CC1)Cc1ccc(F)c(F)c1` displayed an XC50 of 1110 nM.

`O=C(NC1CCN(c2ccnc3cc(Cl)ccc23)C1)c1cccc(F)c1` (configuration not stated) had an XC50 of 179 nM.

Consider `OC(CNCc1cccc(Oc2ccc(Cl)cc2)c1)c1cc(C(F)(F)F)cc(C(F)(F)F)c1` (configuration not stated), for which the XC50 worked out at 255 nM.

`O=S(=O)(NCCN1CCCC1)c1cccc(-c2ccc(CNCc3ccsc3)cc2)c1` returned an XC50 of 804 nM.

Turning to `O=C(NCCCCNCC(Cc1cccc(O)c1)c1ccccc1)c1ccc(NC(=O)c2ccc(Cl)cc2)cc1` (configuration not stated), the XC50 was found to be 1040 nM.

In turn, `c1ccc2[nH]c(CN(Cc3nc4ccccc4[nH]3)Cc3nc4ccccc4[nH]3)nc2c1` had an XC50 of 668 nM.

On to `COc1ccc(CCN(C)CCOc2ccc(NC(=O)c3cccc4c(=O)c5cc(SC)ccc5[nH]c34)cc2)cc1OC`, for which the XC50 amounted to 740 nM.

In the case of `Cc1ccc2nc(C)cc(Nc3ccccc3O)c2c1`, the XC50 is 791 nM.

The compound `O=C1CCCN1CCCNCc1cccc(-c2cccc(-c3nc4cc(C(F)(F)F)ccc4[nH]3)c2)c1` had an XC50 of 299 nM.

In the case of `COc1ccc(C2=[N+]([O-])c3ccccc3C2=O)cc1`, the XC50 is 783 nM.

In the case of `NS(=O)(=O)c1cccc(-c2ccc3c(O)ncnc3c2)c1`, the XC50 amounted to 946 nM.

Compound `N#Cc1cccc(Nc2cc(C(F)(F)F)nc(Nc3ccccc3)n2)c1` had an XC50 of 1440 nM.

`CCOc1cccc(C(=O)Nc2cccc(CN3CCCN(Cc4ccc(O)cc4)CC3)c2)c1` displayed an XC50 of 824 nM.

Compound `CS(=O)(=O)NCCCNCc1cccc(-c2ccc(-c3nc4cc(C(F)(F)F)ccc4[nH]3)s2)c1` came in with an XC50 of 880 nM.

With `O=C1OC2(CN1CC1CCN(Cc3ccc(O)cc3Cl)C1)c1ccccc1-c1ccccc12` (configuration not stated), the XC50 worked out at 1170 nM.

Take `CN1CCN(c2ccnc3ccc(NC(=O)Nc4ccc(-c5ccncc5)c(C(F)(F)F)c4)cc23)CC1`: the XC50 came to 823 nM.

In turn, `Cc1nnc2c(NC(=O)NC3CCCC3)cc3cc(-c4ccc(CN5CCCCC5)cc4)ccc3n12` returned an XC50 of 948 nM.

On to `Cc1nn(-c2ccccc2)c2sc(C(=O)N(CCCN(C)C)c3nc(-c4ccccc4)cs3)cc12`, for which the XC50 came to 981 nM.

In the case of `O=C(/C=C/c1ccc(Cl)c(Cl)c1)NCCCCCCN1CCCN(C(=O)Nc2cccc(Cl)c2)CC1`, the XC50 amounted to 855 nM.

In the case of `COc1ccc2nc(C)cc(Nc3ccc(Oc4ccc(Cl)c5ccccc45)c(Cl)c3)c2c1`, the XC50 came to 730 nM.

As for `CC(C)(C)c1nn(-c2ccccc2)c2[nH]c(=O)c(CNCCc3ccccc3)cc12`, the XC50 was 866 nM.

`CC(C)Oc1ccc(C=CC(=O)Nc2noc3ccccc23)cc1` registered an XC50 of 288 nM.

With `Cc1ccc(-n2cc(CNCCc3nc(C)c[nH]3)c(-c3ccc(F)cc3)n2)cc1`, the XC50 is 1510 nM.

`O=C(Nc1cccc(-c2cccc(-c3nc4cc(F)ccc4[nH]3)c2)c1)c1ccoc1` showed an XC50 of 333 nM.

`Cc1ccc(C)c(-n2c(SCC(=O)Nc3ccc(C(N)=O)cc3)nnc2-c2cccc(Cl)c2)c1` returned an XC50 of 845 nM.

As to `CC1CCCN(C(=O)c2cc(-c3ccccn3)nc3c(Cl)cccc23)C1` (configuration not stated), the XC50 stood at 1080 nM.

Turning to `CC1CCN(CC[C@H]2CCCN2S(=O)(=O)c2cccc(NC(=O)c3ccc(-c4ccc(Cl)cc4)o3)c2)CC1`, the XC50 was 693 nM.

The compound `Fc1ccc(OC2CN(c3nccc(NCc4ccccc4Cl)n3)C2)cc1` returned an XC50 of 898 nM.

Consider `O=C(Nc1ccc(-n2ccc(C(F)(F)F)n2)cc1)c1cccs1`, for which the XC50 was 1070 nM.

`N#Cc1ccc2c(c1)CCN(CCC1CCC(NC(=O)/C=C/c3ccc(Cl)c(Cl)c3)CC1)CC2` (configuration not stated): the XC50 is 422 nM.

As to `COc1cc2c(cc1OC)CN(CCCCNC(=O)c1ccc(NC(=O)c3cc(Cl)cc(Cl)c3)cc1)CC2`, the XC50 stood at 778 nM.

`COc1ccccc1NC(=O)Nc1ccc(-c2cccc(-c3nc4ccccc4[nH]3)c2)cc1` returned an XC50 of 641 nM.

These data come from ChEMBL document CHEMBL1157539, “Thousands of chemical starting points for antimalarial lead identification” (Nature, 2010).
